Where two headings read alike, the source gives them in different places.
Legend:
PDGF-Ra = target: T1, PDGF-Ra (Homo sapiens, UniProt P16234); assay: Inhibitory activity against PDGF-Ra phosphorylation by PDGF-AA stimulation using G292; type: cell-based; conditions: for IC50: > means inhibition at indicated concentration not more than 50%, < and << not less than 50%, read-out: PDGF (E) IC50
T1 construct: host or cells: G-292 human osteosarcoma cells
Summary of the method: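 Cells seeded in low-serum medium are exposed to test compound for one hour, then PDGF-AA (50 ng/ml) triggers receptor phosphorylation for 5 min at 37 °C. Phospho-PDGF-Ra in solubilized cells is quantified by anti-phosphotyrosine capture ELISA at 450 nm.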

c-kit = target: T2, c-kit (Homo sapiens, UniProt P10721); assay: Inhibitory activity against c-kit autophosphorylation (MO7e cells, h-SCF); type: cell-based; conditions: MO7e cells, read-out: c-kit IC50
T2 construct: MO7e (human megakaryocytic leukemia cell line) which had been arrested for 20 hr; endogenous in cells; host or cells: MO7e human megakaryocytic leukemia cell line
T2 sequence (P10721 26-976): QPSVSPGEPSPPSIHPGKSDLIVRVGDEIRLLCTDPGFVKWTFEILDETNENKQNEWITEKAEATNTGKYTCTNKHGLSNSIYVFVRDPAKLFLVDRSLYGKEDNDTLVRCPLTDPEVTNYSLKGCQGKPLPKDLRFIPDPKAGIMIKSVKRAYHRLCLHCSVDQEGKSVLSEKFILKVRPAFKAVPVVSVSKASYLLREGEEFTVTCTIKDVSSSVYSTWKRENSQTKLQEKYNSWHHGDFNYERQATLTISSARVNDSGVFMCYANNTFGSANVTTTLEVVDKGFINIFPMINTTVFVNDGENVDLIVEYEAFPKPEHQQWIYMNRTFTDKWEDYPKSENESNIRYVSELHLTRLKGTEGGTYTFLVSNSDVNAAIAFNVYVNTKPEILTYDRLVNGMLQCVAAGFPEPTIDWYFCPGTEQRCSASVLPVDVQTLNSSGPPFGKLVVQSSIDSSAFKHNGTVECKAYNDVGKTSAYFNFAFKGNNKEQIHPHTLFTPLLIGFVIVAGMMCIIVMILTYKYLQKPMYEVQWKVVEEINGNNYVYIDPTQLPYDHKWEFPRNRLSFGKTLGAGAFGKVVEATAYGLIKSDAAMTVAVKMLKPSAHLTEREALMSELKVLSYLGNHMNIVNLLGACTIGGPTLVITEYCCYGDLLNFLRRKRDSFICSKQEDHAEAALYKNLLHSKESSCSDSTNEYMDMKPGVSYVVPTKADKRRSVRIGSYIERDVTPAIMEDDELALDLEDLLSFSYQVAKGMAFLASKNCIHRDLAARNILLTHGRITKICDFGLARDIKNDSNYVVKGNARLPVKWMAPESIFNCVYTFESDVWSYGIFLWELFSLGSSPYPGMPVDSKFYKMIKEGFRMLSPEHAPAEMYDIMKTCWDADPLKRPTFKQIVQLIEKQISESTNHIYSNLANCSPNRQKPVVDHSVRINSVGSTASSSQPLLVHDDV
Summary of the method: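 Ligand-induced c-kit tyrosine phosphorylation is measured in MO7e cells that were quiesced 20 hr and preincubated with compound for 1 hr prior to a 5 min pulse of 50 ng/ml human SCF. Phospho-c-kit is detected by anti-phosphotyrosine capture ELISA, A450.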

T1 sequence (P16234 24-1089): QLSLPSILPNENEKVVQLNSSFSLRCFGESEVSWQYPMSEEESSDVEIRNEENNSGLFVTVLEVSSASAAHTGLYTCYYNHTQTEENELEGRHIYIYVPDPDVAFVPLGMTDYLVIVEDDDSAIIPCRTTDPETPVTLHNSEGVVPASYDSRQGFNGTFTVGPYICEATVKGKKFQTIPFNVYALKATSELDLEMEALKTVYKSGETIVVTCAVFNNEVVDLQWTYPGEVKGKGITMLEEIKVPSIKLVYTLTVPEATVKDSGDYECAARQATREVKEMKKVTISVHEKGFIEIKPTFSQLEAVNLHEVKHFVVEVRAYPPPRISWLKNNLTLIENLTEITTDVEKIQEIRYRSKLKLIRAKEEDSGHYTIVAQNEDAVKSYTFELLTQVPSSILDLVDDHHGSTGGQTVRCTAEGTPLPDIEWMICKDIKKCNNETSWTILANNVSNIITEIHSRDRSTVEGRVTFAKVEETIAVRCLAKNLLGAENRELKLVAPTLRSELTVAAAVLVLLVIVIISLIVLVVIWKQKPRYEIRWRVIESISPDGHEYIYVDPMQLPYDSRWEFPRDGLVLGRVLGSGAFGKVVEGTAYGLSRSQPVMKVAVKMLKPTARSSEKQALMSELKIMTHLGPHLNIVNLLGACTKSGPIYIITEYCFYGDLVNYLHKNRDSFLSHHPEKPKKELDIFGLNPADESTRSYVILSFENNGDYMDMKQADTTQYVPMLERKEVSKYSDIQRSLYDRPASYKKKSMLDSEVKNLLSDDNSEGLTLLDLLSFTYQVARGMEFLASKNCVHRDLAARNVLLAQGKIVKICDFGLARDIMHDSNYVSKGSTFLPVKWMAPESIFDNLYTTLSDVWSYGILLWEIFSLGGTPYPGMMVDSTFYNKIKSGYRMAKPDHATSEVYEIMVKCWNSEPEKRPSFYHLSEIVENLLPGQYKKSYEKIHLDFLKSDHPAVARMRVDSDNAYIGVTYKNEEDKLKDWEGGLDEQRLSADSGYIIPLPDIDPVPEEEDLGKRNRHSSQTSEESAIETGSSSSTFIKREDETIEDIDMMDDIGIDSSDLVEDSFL

IC50 (PDGF-Ra; Pharmacological Test Example 1)	IC50 (c-kit; h-SCF 50 ng/ml)	inhibition at 0.1 µM (PDGF-Ra; G292, figure in parentheses in >100( ), at 100 nM, read-out: PDGF (E) inhibition (%) at 100 nM)	IC50 (PDGF-Ra)	IC50 (c-kit; 50 ng/ml h-SCF)	Structure (SMILES)
0.074 µM	0.585 µM				CCCCC(CCCC)OC(=O)Nc1ccc(Oc2ccnc3cc(OC)c(OC)cc23)c(C)c1C [Example 370, 1-Butylpentyl N-{4-[(6,7-dimethoxy-4-quinolyl)oxy]-2,3-dimethylphenyl}carbamate]
< 0.01 µM	0.541 µM				CCCCC(CCCC)OC(=O)Nc1ccc(Oc2ncnc3cc(OC)c(OC)cc23)cc1 [Example 371, 1-Butylpentyl N-{4-[(6,7-dimethoxy-4-quinazolinyl)oxy]phenyl}carbamate]
0.043 µM	0.071 µM				C=CCOC(=O)Nc1cc(C)c(Oc2ccnc3cc(OC)c(OC)cc23)cc1C [Example 373, Allyl N-{4-[(6,7-dimethoxy-4-quinolyl)oxy]-2,5-dimethylphenyl}carbamate]
< 0.01 µM	< 0.03 µM				C=CCOC(=O)Nc1ccc(Oc2ccnc3cc(OC)c(OC)cc23)c(C)c1C [Example 374, Allyl N-{4-[(6,7-dimethoxy-4-quinolyl)oxy]-2,3-dimethylphenyl}carbamate]
0.074 µM	0.144 µM				C=CCOC(=O)Nc1ccc(Oc2ncnc3cc(OC)c(OC)cc23)cc1 [Example 375, Allyl N-{4-[(6,7-dimethoxy-4-quinazolinyl)oxy]phenyl}carbamate]
< 0.01 µM	0.041 µM				COc1cc2nccc(Oc3ccc(NC(=O)OCCCc4ccccc4)cc3)c2cc1OC [Example 376, 3-Phenylpropyl N-{4-[(6,7-dimethoxy-4-quinolyl)oxy]phenyl}carbamate]
0.021 µM	0.151 µM				COc1cc2nccc(Oc3cc(C)c(NC(=O)OCCCc4ccccc4)cc3C)c2cc1OC [Example 377, 3-Phenylpropyl N-{4-[(6,7-dimethoxy-4-quinolyl)oxy]-2,5-dimethylphenyl}carbamate]
0.014 µM	0.092 µM				COc1cc2nccc(Oc3ccc(NC(=O)OCCCc4ccccc4)c(C)c3C)c2cc1OC [Example 378, 3-Phenylpropyl N-{4-[(6,7-dimethoxy-4-quinolyl)oxy]-2,3-dimethylphenyl}carbamate]
0.011 µM	0.624 µM				COc1cc2ncnc(Oc3ccc(NC(=O)OCCCc4ccccc4)c(Cl)c3)c2cc1OC [Example 379, 3-Phenylpropyl N-{2-chloro-4-[(6,7-dimethoxy-4-quinazolinyl)oxy]phenyl}carbamate]
< 0.01 µM	0.045 µM				COc1cc2nccc(Oc3ccc(NC(=O)OCC4CC4)cc3)c2cc1OC [Example 380, Cyclopropylmethyl N-{4-[(6,7-dimethoxy-4-quinolyl)oxy]phenyl}carbamate]
< 0.01 µM	0.028 µM				COc1cc2nccc(Oc3ccc(NC(=O)OCC4CC4)c(C)c3C)c2cc1OC [Example 382, Cyclopropylmethyl N-{4-[(6,7-dimethoxy-4-quinolyl)oxy]-2,3-dimethylphenyl}carbamate]
0.074 µM	0.09 µM				COc1cc2ncnc(Oc3ccc(NC(=O)OCC4CC4)cc3)c2cc1OC [Example 383, Cyclopropylmethyl N-{4-[(6,7-dimethoxy-4-quinazolinyl)oxy]phenyl}carbamate]
< 0.01 µM	0.087 µM				COc1cc2nccc(Oc3ccc(NC(=O)OCC4CCC4)cc3)c2cc1OC [Example 385, Cyclobutylmethyl N-{4-[(6,7-dimethoxy-4-quinolyl)oxy]phenyl}carbamate]
0.02 µM	0.105 µM				COc1cc2nccc(Oc3cc(C)c(NC(=O)OCC4CCC4)cc3C)c2cc1OC [Example 386, Cyclobutylmethyl N-{4-[(6,7-dimethoxy-4-quinolyl)oxy]-2,5-dimethylphenyl}carbamate]
< 0.01 µM	0.031 µM				COc1cc2nccc(Oc3ccc(NC(=O)OCC4CCC4)c(C)c3C)c2cc1OC [Example 387, Cyclobutylmethyl N-{4-[(6,7-dimethoxy-4-quinolyl)oxy]-2,3-dimethylphenyl}carbamate]
0.012 µM	0.06 µM				COc1cc2ncnc(Oc3ccc(NC(=O)OCC4CCC4)cc3)c2cc1OC [Example 388, Cyclobutylmethyl N-{4-[(6,7-dimethoxy-4-quinazolinyl)oxy]phenyl}carbamate]
0.033 µM	0.4 µM				COc1cc2ncnc(Oc3cc(C)c(NC(=O)OC4CCCCC4)cc3C)c2cc1OC [Example 390, Cyclohexyl N-{4-[(6,7-dimethoxy-4-quinazolinyl)oxy]-2,5-dimethylphenyl}carbamate]

IC50 (PDGF-Ra; Pharmacological Test Example 1)	IC50 (c-kit; h-SCF 50 ng/ml)	inhibition at 0.1 µM (PDGF-Ra; G292, figure in parentheses in >100( ), at 100 nM, read-out: PDGF (E) inhibition (%) at 100 nM)	IC50 (PDGF-Ra)	IC50 (c-kit; 50 ng/ml h-SCF)	Structure (SMILES)
0.013 µM	0.129 µM				COc1cc2ncnc(Oc3ccc(NC(=O)OC4CCCCC4)c(C)c3C)c2cc1OC [Example 391, Cyclohexyl N-{4-[(6,7-dimethoxy-4-quinazolinyl)oxy]-2,3-dimethylphenyl}carbamate]
> 0.1 µM	0.432 µM	38%			COc1cc2ncnc(Oc3cc(C)c(NC(=O)OC4CCCC4)cc3C)c2cc1OC [Example 392, Cyclopentyl N-{4-[(6,7-dimethoxy-4-quinazolinyl)oxy]-2,5-dimethylphenyl}carbamate]
0.082 µM	0.09 µM				COc1cc2ncnc(Oc3ccc(NC(=O)OC4CCCC4)c(C)c3C)c2cc1OC [Example 393, Cyclopentyl N-{4-[(6,7-dimethoxy-4-quinazolinyl)oxy]-2,3-dimethylphenyl}carbamate]
< 0.01 µM	0.133 µM				COc1cc2nccc(Oc3ccc(NC(=O)OCC4CCCC4)cc3)c2cc1OC [Example 394, Cyclopentylmethyl N-{4-[(6,7-dimethoxy-4-quinolyl)oxy]phenyl}carbamate]
0.019 µM	0.226 µM				COc1cc2nccc(Oc3cc(C)c(NC(=O)OCC4CCCC4)cc3C)c2cc1OC [Example 395, Cyclopentylmethyl N-{4-[(6,7-dimethoxy-4-quinolyl)oxy]-2,5-dimethylphenyl}carbamate]
0.019 µM	0.086 µM				COc1cc2nccc(Oc3ccc(NC(=O)OCC4CCCC4)c(C)c3C)c2cc1OC [Example 396, Cyclopentylmethyl N-{4-[(6,7-dimethoxy-4-quinolyl)oxy]-2,3-dimethylphenyl}carbamate]
< 0.01 µM	0.077 µM				COc1cc2ncnc(Oc3ccc(NC(=O)OCC4CCCC4)cc3)c2cc1OC [Example 397, Cyclopentylmethyl N-{4-[(6,7-dimethoxy-4-quinazolinyl)oxy]phenyl}carbamate]
0.033 µM	0.462 µM				COc1cc2ncnc(Oc3ccc(NC(=O)OCC4CCCC4)c(Cl)c3)c2cc1OC [Example 398, Cyclopentylmethyl N-{2-chloro-4-[(6,7-dimethoxy-4-quinazolinyl)oxy]phenyl}carbamate]
			0.063 µM	0.327 µM	COc1cc2ncnc(Oc3ccc(NC(=O)OCCN4CCOCC4)cc3)c2cc1OC [Example 399, 2-Morpholinoethyl N-{4-[(6,7-dimethoxy-4-quinazolinyl)oxy]phenyl}carbamate]
			< 0.01 µM	0.671 µM	CCCC(CCC)OC(=O)Nc1ccc(Oc2ncnc3cc(OC)c(OC)cc23)cc1 [Example 400, 1-Propylbutyl N-{4-[(6,7-dimethoxy-4-quinazolinyl)oxy]phenyl}carbamate]
			< 0.01 µM	0.586 µM	CCCCC(CC)OC(=O)Nc1ccc(Oc2ncnc3cc(OC)c(OC)cc23)cc1 (centres unmarked) [Example 401, 1-Ethylpentyl N-{4-[(6,7-dimethoxy-4-quinazolinyl)oxy]phenyl}carbamate]
			< 0.01 µM	0.081 µM	C=C(C)COC(=O)Nc1ccc(Oc2ccnc3cc(OC)c(OC)cc23)cc1 [Example 404, 2-Methylallyl N-{4-[(6,7-dimethoxy-4-quinolyl)oxy]phenyl}carbamate]
			0.046 µM	0.126 µM	C=C(C)COC(=O)Nc1cc(C)c(Oc2ccnc3cc(OC)c(OC)cc23)cc1C [Example 405, 2-Methylallyl N-{4-[(6,7-dimethoxy-4-quinolyl)oxy]-2,5-dimethylphenyl}carbamate]
			< 0.01 µM	< 0.03 µM	C=C(C)COC(=O)Nc1ccc(Oc2ccnc3cc(OC)c(OC)cc23)c(C)c1C [Example 406, 2-Methylallyl N-{4-[(6,7-dimethoxy-4-quinolyl)oxy]-2,3-dimethylphenyl}carbamate]
			0.026 µM	0.068 µM	C=C(C)COC(=O)Nc1ccc(Oc2ncnc3cc(OC)c(OC)cc23)cc1 [Example 407, 2-Methylallyl N-{4-[(6,7-dimethoxy-4-quinazolinyl)oxy]phenyl}carbamate]
			0.026 µM	0.392 µM	C#CCC(CC)OC(=O)Nc1cc(C)c(Oc2ccnc3cc(OC)c(OC)cc23)cc1C (centres unmarked) [Example 409, 1-Ethyl-3-butynyl N-{4-[(6,7-dimethoxy-4-quinolyl)oxy]-2,5-dimethylphenyl}carbamate]
			0.012 µM	0.079 µM	C#CCC(CC)OC(=O)Nc1ccc(Oc2ccnc3cc(OC)c(OC)cc23)c(C)c1C (centres unmarked) [Example 410, 1-Ethyl-3-butynyl N-{4-[(6,7-dimethoxy-4-quinolyl)oxy]-2,3-dimethylphenyl}carbamate]

Structure (SMILES)	IC50 (PDGF-Ra; Pharmacological Test Example 1)	IC50 (c-kit; h-SCF 50 ng/ml)	inhibition at 0.1 µM (PDGF-Ra; G292, figure in parentheses in >100( ), at 100 nM, read-out: PDGF (E) inhibition (%) at 100 nM)	IC50 (PDGF-Ra)	IC50 (c-kit; 50 ng/ml h-SCF)
COc1cc2ncnc(Oc3ccc(NC(=O)Oc4ccccc4OC)cc3)c2cc1OC [Example 403, 2-Methoxyphenyl N-{4-[(6,7-dimethoxy-4-quinazolinyl)oxy]phenyl}carbamate]				0.014 µM	0.093 µM
